Patent publication US20200010910A1, “Cytotoxic Chemotherapy-Based Predictive Assays for Acute Myeloid Leukemia” (The Regents of The University of California, priority 2017, published 2020)

Assays:
Assay type in all cases: cell-based
[1] = test system: A2780 and A2780ADR ovarian cancer cell lines; assay: doxorubicin-DNA adducts by AMS; details: 10 nM or 100 nM DOX 4 h, then 20 hr drug-free
Description: In order to assess the formation and loss of intracellular doxorubicin-DNA adducts, ovarian cancer cells were treated with Dox in culture. For doxorubicin-treated cells, one million ovarian cancer cells were seeded in 60-mm dishes the day before treatment and allowed to attach overnight. Similar to the ARA-C bolus protocol, the ovarian cancer cell lines were treated with a low (10 nM) or a high (100 nM) dose of unlabeled DOX supplemented with 0.8 nM of ^14C-labeled DOX (100 dpm/mL, 0.39-3.7 mCi/mmol specific activity (American Radiolabeled Chemicals, Inc.) for 4 h followed by an additional 20 hr of culturing in drug-free media (FIG. 25C). At 24 hrs, the cells were pelleted and washed. DNA was then isolated from these cells using the Qiamp DNA Blood Kit followed by two phenol and one chloroform extractions to remove intercalated DOX according to a published protocol (19). This protocol left intact covalent DOX-DNA adducts that are known to be formed as a consequence of DOX metabolism. Removal of intercalated DOX is important, since it is noncovalently bound and would otherwise partially diffuse out from the DNA sample causing variable results. Ten micrograms of DNA from each sample was converted to graphite and the ratios of ^14C to total C were measured by AMS. AMS was performed on triplicate DNA samples and the results were converted to drug-DNA adducts per ten million nucleotides.

[2] = test system: A2780ADR; assay: CellTiter 96 Aqueous cell proliferation assay; details: A2780 ADR, 72 hr continuous treatment
Source text: (§1) Correlation of IC50 to the AML induction drugs Dox and Ara-C were first performed with the adherent bladder cancer cell lines 5637 and 5637R for cytarabine and with the adherent ovarian cancer cell lines A2780 and A2780ADR for doxorubicin. Cell lines 5637 and 5637R (Ara-C resistant) have been described previously (20). A2780 and A2780ADR (doxorubicin resistant) were purchased from Sigma-Aldrich and grown as recommended. IC50 values were obtained by plating 4000 cells per well in 96-well plates the night before treatment, and then allowing the cells to adhere over night. Leukemia cell lines capable of continuous proliferation in suspension and having differential sensitivities to Dox and Ara-C were also obtained for correlation analysis. MV-4-11 (acute monocytic leukemia) and THP-1 (acute monocytic leukemia) human cell lines were purchased from American Type Culture Collection (ATCC, Manassas, Va.). MOLM-13 (acute myeloid leukemia) human cells were purchased from AddexBio (San Diego, Calif.). For leukemia cell lines (suspension cultures), approximately 8,000-11,000 cells were seeded per well in 96-well plates the day of treatment. MV-4-11 cells were grown in IMDM (Iscove's Modified Dulbecco's Media) with 10% FBS, 100 U/ml penicillin, and 100 μg/ml streptomycin. THP-1, A2780, and A2780ADR cells were grown in RPMI-1640 media with 10% FBS, 100 U/ml penicillin, and 100 μg/ml streptomycin. 5637, 5637R, and MOLM-13 cells were grown in RPMI-1640 media with 20% FBS, 100 U/ml penicillin, and 100 μg/ml streptomycin. All cells were cultured at 37° C. in a humidified incubator. The cells were then incubated with increasing doses of cytarabine or doxorubicin continuously for 72 hours. IC50 values were determined using the CellTiter 96 Aqueous Non-Radioactive Cell Proliferation Assay (Promega). […] As shown, 5637 and 5673R have differential sensitivity to cytarabine, while A2780 and A2780ADR have differential sensitivity to doxorubicin. The leukemic suspension cell lines also have differential sensitivity to these two drugs.

[3] = test system: MV-4-11; assay: CellTiter 96 Aqueous cell proliferation assay; details: Homo sapiens, MV4-11, 72 hr continuous treatment
Source text: as §1

[4] = test system: A2780; assay: CellTiter 96 Aqueous cell proliferation assay; details: Homo sapiens, 72 hr continuous treatment
Source text: as §1

[5] = test system: THP-1; assay: CellTiter 96 Aqueous cell proliferation assay; details: Homo sapiens, 72 hr continuous treatment
Source text: as §1

[6] = test system: MOLM-13; assay: CellTiter 96 Aqueous cell proliferation assay; details: Homo sapiens, 72 hr continuous treatment
Source text: as §1

IC50 [2]: 12 µM
IC50 [3]: 0.003 µM
IC50 [4]: 0.021 µM
IC50 [5]: 0.024 µM
IC50 [6]: 0.004 µM
SMILES: COc1cccc2c1C(=O)c1c(O)c3c(c(O)c1C2=O)C[C@@](O)(C(=O)CO)C[C@@H]3O[C@H]1C[C@H](N)[C@H](O)[C@H](C)O1 [doxorubicin]
doxorubicin-DNA adducts in resistant A2780ADR compared to sensitive A2780 [1]: fewer doxorubicine-DNA adducts
